{"source": "patent US6569843B1", "about": "“Steroidal sapogenins for the control of coccidiosis in animals” (priority 1999, dated 2003)", "format_in_all_cases": "in vivo", "key": {"[1]": {"tested_on": "mixed culture of E. acervulina, E. maxima and E. tenella", "assay": "14 day coccidial challenge study, steroidal sapogenin and antibiotic compatibility in chicks (Example 5)", "details": "SS at 3.3 ppm where included, antibiotic doses not given; for Lesion Scores, Cecal / Lesion Scores, Middle / Lesion Scores, Upper: day 14"}, "[2]": {"tested_on": "mixture of E. acervulina, E. maxima and E. tenella", "assay": "8 day coccidial challenge study in broiler chicks, mortality, weight gain, feed efficiency (Example 4)"}, "[3]": {"tested_on": "E. acervulina", "assay": "8 day coccidial challenge study, upper lesion score (Example 4)", "details": "day 8"}, "[4]": {"tested_on": "E. maxima", "assay": "8 day coccidial challenge study, middle lesion score (Example 4)", "details": "day 8"}, "[5]": {"tested_on": "E. tenella", "assay": "8 day coccidial challenge study, cecal lesion score (Example 4)", "details": "day 8"}, "[6]": {"tested_on": "mixture of E. acervulina, E. maxima and E. tenella", "assay": "13 day coccidial challenge study in broiler chicks, weight and feed conversion (Example 3)", "source_text": "(§1) Birds were fed a standard corn soybean meal diet and water ad libitum. Birds were placed in 4 foot by 5 foot pens at the rate of 50 birds per pen. On day 6 all birds, except the negative control, were orally challenged with an inoculum comprised of a mixture of E. acervulina, E. maxima and E. tenella. Since each of these three specie of Eimeria produce intestinal lesions in distinctly different regions of the intestinal their effects can be partitioned when scoring the birds. On day 13 all birds were sacrificed by cervical dislocation and the intestines scored for coccidial lesions by the standard Johnson and Reid method."}, "[7]": {"tested_on": "E. acervulina", "assay": "13 day coccidial challenge study, upper intestinal lesion score (Example 3)", "details": "day 13", "source_text": "as §1"}, "[8]": {"tested_on": "E. maxima", "assay": "13 day coccidial challenge study, middle intestinal lesion score (Example 3)", "details": "day 13", "source_text": "as §1"}, "[9]": {"tested_on": "E. tenella", "assay": "13 day coccidial challenge study, cecal lesion score (Example 3)", "details": "day 13", "source_text": "as §1"}}, "note": "Values joined by “and” are separate entries in the source; they are usually repeats but may differ in a detail not shown here. Equal values may be shown once.", "data": [{"compound": "Bacitracin Zinc", "values": [{"measurement": "Feed/Gain", "setting": "[1]", "result": 1.833}, {"measurement": "Weight, gm", "setting": "[1]", "result": 259.7, "unit": "gm"}, {"measurement": "Lesion Scores, Cecal", "setting": "[1]", "result": 1.50}, {"measurement": "Lesion Scores, Middle", "setting": "[1]", "result": 2.08}, {"measurement": "Lesion Scores, Upper", "setting": "[1]", "result": 1.50}]}, {"compound": "CO[C@@H]1[C@@H](OC)[C@H](C)[C@@](O)(CC(=O)O)O[C@H]1[C@H](C)[C@H]1O[C@@]2(CC[C@@](C)([C@H]3CC[C@@](C)([C@@H]4O[C@@H]([C@H]5O[C@](C)(O)[C@H](C)C[C@@H]5C)C[C@@H]4O[C@@H]4C[C@H](OC)[C@@H](OC)[C@H](C)O4)O3)O2)C[C@H](O)[C@H]1C", "note": "[Maduramicin]", "values": [{"measurement": "Feed/Gain", "setting": "[2]; 5 ppm, two different sources", "result": "1.8503 cd and 1.8463 cd"}, {"measurement": "Mortality, %", "setting": "[2]; 5 ppm, two different sources", "result": "6.67 a % and 0 a %"}, {"measurement": "Weight Gain, gm", "setting": "[2]; 5 ppm, two different sources", "result": "266.67 d gm and 269.33 d gm"}, {"measurement": "Lesion Scores, Upper, E. acervulina", "setting": "[3]; 5 ppm, two different sources", "result": "2.1000 b and 2.3667 b"}, {"measurement": "Lesion Scores, Middle, E. maxima", "setting": "[4]; 5 ppm, two different sources", "result": "2.2667 b and 2.3000 b"}, {"measurement": "Lesion Scores, Cecal, E. tenella", "setting": "[5]; 5 ppm, two different sources", "result": "2.6000 bc and 2.3333 bc"}]}, {"compound": "Virginiamycin", "values": [{"measurement": "Feed/Gain", "setting": "[1]", "result": 1.891}, {"measurement": "Weight, gm", "setting": "[1]", "result": 256.3, "unit": "gm"}, {"measurement": "Lesion Scores, Cecal", "setting": "[1]", "result": 1.17}, {"measurement": "Lesion Scores, Middle", "setting": "[1]", "result": 1.58}, {"measurement": "Lesion Scores, Upper", "setting": "[1]", "result": 1.17}]}, {"compound": "CC[C@@H](C(=O)[C@@H](C)[C@@H](O)[C@H](C)[C@@H]1O[C@@H]([C@@H](CC)C(=O)O)CC[C@@H]1C)[C@H]1O[C@]2(C=C[C@@H](O)[C@]3(CC[C@@](C)([C@H]4CC[C@](O)(CC)[C@H](C)O4)O3)O2)[C@H](C)C[C@@H]1C", "note": "[Salinomycin]", "values": [{"measurement": "Feed/Gain", "setting": "[6]; 60 g/ton", "result": 1.624}, {"measurement": "Weight, gm (average bird weight)", "setting": "[6]; 60 g/ton", "result": 246.3, "unit": "gm"}, {"measurement": "Average intestinal lesion score, Upper, acervulina", "setting": "[7]; 60 g/ton", "result": 0.76}, {"measurement": "Average intestinal lesion score, Middle, maxima", "setting": "[8]; 60 g/ton", "result": 1.22}, {"measurement": "Average intestinal lesion score, Cecal, tenella", "setting": "[9]; 60 g/ton", "result": 0.68}, {"measurement": "Feed/Gain", "setting": "[2]; 60 gm/ton", "result": 1.8473, "unit": "cd"}, {"measurement": "Mortality, %", "setting": "[2]; 60 gm/ton", "result": 6.67, "unit": "a %"}, {"measurement": "Weight Gain, gm", "setting": "[2]; 60 gm/ton", "result": 269.67, "unit": "d gm"}, {"measurement": "Lesion Scores, Upper, E. acervulina", "setting": "[3]; 60 gm/ton", "result": 2.1333, "unit": "b"}, {"measurement": "Lesion Scores, Middle, E. maxima", "setting": "[4]; 60 gm/ton", "result": 2.9000, "unit": "bc"}, {"measurement": "Lesion Scores, Cecal, E. tenella", "setting": "[5]; 60 gm/ton", "result": 2.9000, "unit": "bc"}]}, {"compound": "CC[C@@]1([C@@H]2O[C@@H]([C@H]3O[C@@](O)(CO)[C@H](C)C[C@@H]3C)C[C@@H]2C)CC[C@H]([C@]2(C)CC[C@]3(C[C@H](O)[C@@H](C)[C@@H]([C@@H](C)[C@@H](OC)[C@H](C)C(=O)O)O3)O2)O1", "note": "[Monensin]", "values": [{"measurement": "Feed/Gain", "setting": "[6]; 100 g/ton", "result": 1.843}, {"measurement": "Weight, gm (average bird weight)", "setting": "[6]; 100 g/ton", "result": 233.0, "unit": "gm"}, {"measurement": "Average intestinal lesion score, Upper, acervulina", "setting": "[7]; 100 g/ton", "result": 1.40}, {"measurement": "Average intestinal lesion score, Middle, maxima", "setting": "[8]; 100 g/ton", "result": 1.58}, {"measurement": "Average intestinal lesion score, Cecal, tenella", "setting": "[9]; 100 g/ton", "result": 1.64}, {"measurement": "Feed/Gain", "setting": "[2]; 90 gm/ton", "result": 1.9033, "unit": "cd"}, {"measurement": "Mortality, %", "setting": "[2]; 90 gm/ton", "result": 3.33, "unit": "a %"}, {"measurement": "Weight Gain, gm", "setting": "[2]; 90 gm/ton", "result": 258.67, "unit": "d gm"}, {"measurement": "Lesion Scores, Upper, E. acervulina", "setting": "[3]; 90 gm/ton", "result": 1.9667, "unit": "b"}, {"measurement": "Lesion Scores, Middle, E. maxima", "setting": "[4]; 90 gm/ton", "result": 2.4333, "unit": "bc"}, {"measurement": "Lesion Scores, Cecal, E. tenella", "setting": "[5]; 90 gm/ton", "result": 2.9667, "unit": "bc"}]}]}
